Measurements reported in patent US20100297688A1, “METHOD FOR DIAGNOSING OR PREDICTING SHORT STATURE IN HUMANS” (priority 2009, published 2010).
No end group written: not given here.

Assays:
[1] = adult dogs, after treatment with GH for 3 months, histomorphometry; cited from earlier work
GH secretion = experiment: GHRH test (GH stimulation test) in children with short stature; type: in vivo, human; conditions: GHRH 1 μg/kg IV at 0 min; GH peaks induced consistently in the first 30 min
Description: Patients. A GHRH test was conducted after overnight fasting, modified with samples that were obtained at 3, 5, and 10 minutes in addition to routine protocol collection of samples at 30 minutes, 60 minutes, 90 minutes and 120 minutes following GHRH injection (GHRH1-29: GEREF, SERONO, Italy; 1 μg/kg IV at 0 min). A total of 19 children (8.6±3.2, range from 2.5 yrs to 14 yrs, 5 girls) who suffered SS (short stature) (Ht−2.5±0.6 SDS) were administered GHRH 1 μg/kg IV at 0 min and blood samples were obtained at 0, 3, 5, 10, 30, 60, 90 and 120 min. GH was determined in all samples.
Blood sample processing. GH and IGF-1 were analyzed at Esoterix (Texas, U.S.). IGF1 was measured by radioimmunoassay after acid-ethanol extraction and with IGF2 blocking. A 100 uL of sample was initially used for the procedure. Growth hormone was tested by ICMA, requires min amount of 0.2 ml of serum, preparation include 1 mL serum, separate within one hour that was shipped frozen in plastic vial (http://www.esoterix.com/prodserv/test_menu!)
AUC measurements for GH were calculated according trapezoid rule (Tai MM 1994 A mathematical model for the determination of total area under glucose tolerance and other metabolic curves. Diabetes Care 17:p 152-4).

Substance | increase in cortical bone mass [1] [%] | time of GH peak after GHRH (GH secretion) [min]
Growth hormone [GH] | 2 | 
Growth hormone releasing hormone (YADAIFTNSYRKVLGQLSARKLLQDIMSR; ends and bridges not checked; UniProt P01286 32-60, looked up, fragment) [GHRH, GHRH1-29: GEREF, SERONO, Italy; stimulator of GH secretion] |  | ≤ 30
